According to PMC10265587 (European journal of medicinal chemistry, 2022):
“Also recorded” adds a separate entry of the source.

Legend:
[1] = tested on: Nrf2 target genes GSTM3, HMOX1, NQO1 in NCM460D cells; experiment: Expression of Nrf2-ARE regulated genes by RT-qPCR in NCM460D cells; assay type: cell-based; conditions: NCM460D cells, 100, 10 and 1 μM, 24 h, RT-PCR
[2] = molecular target: Keap1-Nrf2 PPI (Keap1 Kelch domain / FITC-9mer Nrf2 peptide amide) (Homo sapiens, UniProt Q14145); experiment: Fluorescence polarization; conditions: FP assay, triplicates
Chain of Keap1-Nrf2 PPI (Keap1 Kelch domain / FITC-9mer Nrf2 peptide amide) (Q14145 321-609 limits assumed): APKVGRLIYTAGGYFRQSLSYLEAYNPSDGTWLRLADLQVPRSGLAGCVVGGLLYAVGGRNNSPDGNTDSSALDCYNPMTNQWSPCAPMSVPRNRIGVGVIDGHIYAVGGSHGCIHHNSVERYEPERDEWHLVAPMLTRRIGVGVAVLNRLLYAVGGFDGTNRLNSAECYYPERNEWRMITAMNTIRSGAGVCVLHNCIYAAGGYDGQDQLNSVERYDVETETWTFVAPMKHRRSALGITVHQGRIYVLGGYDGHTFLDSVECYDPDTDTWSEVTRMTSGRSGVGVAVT

Structure (SMILES)	transcription (mRNA levels) of Nrf2 target genes GSTM3, HMOX1 and NQO1 [1]	inhibition at 5 µM [2]
Cc1ccc(S(=O)(=O)N(CC(=O)O)c2ccc(N(CC(=O)O)S(=O)(=O)c3ccc(C)cc3)c(OCc3ccc(F)cc3)c2)cc1 [7v, 2-(4-Fluorobenzyloxy)-1,4-bis(4-methylphenylsulfonamido)benzene-N,N'-diacetic acid]	no effects	–
Cc1ccc(S(=O)(=O)N(CC(=O)O)c2cc(OCc3ccc(F)cc3)c(N(CC(=O)O)S(=O)(=O)c3ccc(C)cc3)c3ccccc23)cc1 [12d, 2-(4-Fluorobenzyloxy)-1,4-bis(4-methylphenylsulfonamido)naphthalene-N,N'-diacetic acid]	significantly increased; also recorded: effectively stimulate transcription	–
COc1ccc(S(=O)(=O)N(CC(=O)O)c2ccc(N(CC(=O)O)S(=O)(=O)c3ccc(OC)cc3)c(N3CCCCC3)c2)cc1 [7b, 2-(Piperidin-1-yl)-1,4-bis(4-methoxyphenylsulfonamido)benzene-N,N'-diacetic acid]	–	~50%
